Experimental data reported in PMC9229949 (Pharmaceutics, 2022).
Like-named read-outs stand apart in the source and are kept apart here.

Experiments:
[1] = test system: P. falciparum 3D7 (CQ-susceptible) asexual blood stages; assay: In vitro activity against asexual blood stages of P. falciparum, CQ-susceptible strain 3D7 (HRP2 ELISA); type: cell-based; settings: Plasmodium falciparum, 3D7
Description: The plates were incubated for 72 h at 37 °C in controlled atmosphere. After frozen and thawing the plates, hemolyzed cultures were homogenized by vortexing the plates. The antiparasitic activity was determined using the HRP2 ELISA-based assay Malaria Ag Celisa kit (ref KM2159, Cellabs PTY LDT, Brookvale, Australia). […] IC50s are expressed as means of three to five experiments.

[2] = Cytotoxicity against J774 cells (CellTiter-Glo); type: cell-based, murine; settings: mouse, J774 macrophage cells; J774 macrophages, 72 h, CellTiterGlo; at least two experiments; read-out: CC50 ± S.E.M.
Description: In vitro cytotoxicity was assayed against two mammalian cell lineages, J774 (murine macrophages) and HepG2 (human hepatocellular carcinoma). […] Cell cultures from 60 to 80% confluence were trypsinized, washed in complete medium, and 4 × 10^4 cells were plated in 100 µL per well with complete medium in 96-well flat-bottom white plates for 24 h at 37 °C prior to the addition of the compounds. Triplicate aliquots of compound and the reference drugs (stock solution in DMSO) covering 7 different concentrations at 2-fold dilutions were added to the wells, and plates were incubated for 72 h more. After incubation for 72 h at 37 °C, plates were maintained at room temperature, the culture medium was removed, and 100 µL volume of CellTiter-Glo reagent was added to each well. The bioluminescence was measured using a microplate reader Filtermax F5 Multi-Mode instrument (Molecular Devices) and Softmax software. […] The selectivity index (S.I.) was estimated using the IC50s from mammalian cells divided by the IC50 obtained against the asexual blood stage P. falciparum.

[3] = test system: 3D7 P. falciparum gametocytes stages I/III; assay: P. falciparum young gametocytes (stages I/III), luciferase viability; type: cell-based; settings: Plasmodium falciparum; 3D7 strain, 72 h; mean ± S.D. of one experiment; read-out: IC50, gametocytes of P. falciparum, Stages I/III
Description: The activity of compounds was assessed against young gametocytes (stages I/III) and against mature gametocytes (stage V). […] A volume of 100 μL of 3D7elo1-pfs16-CBG99 gametocytes of 3D7 P. falciparum at 0.5–1% parasitemia and 2% hematocrit were dispensed. […] Luciferase activity was used to determine gametocytes viability. A volume of 100 µL of culture medium was removed from each well to increase hematocrit; 70 µL of resuspended culture was transferred to a black 96-well plate; 70 µL of D-luciferin (1 mM in citrate buffer 0.1 M, pH 5.5) was added. Luminescence measurements were performed after 10 min with 500 ms integration time. The IC50 was extrapolated from nonlinear regression analysis of the concentration–response curve.

[4] = test system: β-hematin formation; assay: β-hematin formation inhibition by infrared spectroscopy; type: biochemical; design: key: Yes indicates β-hematin inhibition; No indicates β-hematin formation; settings: 3:1 ratio of drug:hematin, qualitative by infrared
Description: The conversion of hemin to β-hematin was determined by infrared (IR) spectroscopy as described by Egan et al.. […] Then, 0.3 mL of 0.1 M HCl and 1.7 mL of sodium acetate buffer ([…], pH 5) were added at the same temperature. […] The solid was dried and IR spectra were obtained using attenuated total reflection (ATR) using chloroquine as a positive control.

[5] = test system: β-hematin formation from Fe(III)PPIX (hematin); assay: β-hematin inhibition activity, oxidizing conditions (O-BHIA, hematin); type: biochemical; settings: 18 h incubation; median ± S.E.M. of three experiments; free bases; read-out: β-Hematin Inhibitory Activity (BHIA) O-BHIA (Hematin), IC50
Description: A hemin chloride (10 μL of 4 mM stock in 80% DMSO) aliquot was dispensed in a U bottom 96-well microplate, and then, 10 μL of 0.1 M NaOH (O-BHIA) or 4 mM reduced glutathione in PBS at pH 7.0 (R-BHIA) was added, and plates were sealed and incubated at 37 °C for 2 h. After this, 10 μL of the drug dissolved in DMSO was added and incubated for 2 h, followed by the addition of 180 μL of sodium acetate buffer (1.0 M, pH 5.2) and 10 μL of nonionic detergent IGEPAL-CA-630 solution in methanol (10 mg/mL). Plates were sealed and incubated at 37 °C for 18 h. […] The reaction was stopped by the addition of 50 μL of a sodium dodecyl sulfate solution (5.0% v/v in 0.1 M bicarbonate buffer at pH 9.0). Plates were centrifuged at 3700 rpm for 5 min, and 100 μL of supernatant was placed in a separate plate. […] Two independent experiments were performed, and each drug concentration was tested in quadruplicate concentrations.

[6] = biological target: T1, human TrxR (hTrxR) (Homo sapiens, UniProt Q16881); assay: Inhibition of enzymatic activity of recombinant human TrxR; type: biochemical; settings: recombinant enzyme, 15 min preincubation; mean of one experiment; read-out: IC50 for TrxRs, Human (Sec)
T1 construct: made in house
T1 sequence (Q16881 151-649 limits assumed): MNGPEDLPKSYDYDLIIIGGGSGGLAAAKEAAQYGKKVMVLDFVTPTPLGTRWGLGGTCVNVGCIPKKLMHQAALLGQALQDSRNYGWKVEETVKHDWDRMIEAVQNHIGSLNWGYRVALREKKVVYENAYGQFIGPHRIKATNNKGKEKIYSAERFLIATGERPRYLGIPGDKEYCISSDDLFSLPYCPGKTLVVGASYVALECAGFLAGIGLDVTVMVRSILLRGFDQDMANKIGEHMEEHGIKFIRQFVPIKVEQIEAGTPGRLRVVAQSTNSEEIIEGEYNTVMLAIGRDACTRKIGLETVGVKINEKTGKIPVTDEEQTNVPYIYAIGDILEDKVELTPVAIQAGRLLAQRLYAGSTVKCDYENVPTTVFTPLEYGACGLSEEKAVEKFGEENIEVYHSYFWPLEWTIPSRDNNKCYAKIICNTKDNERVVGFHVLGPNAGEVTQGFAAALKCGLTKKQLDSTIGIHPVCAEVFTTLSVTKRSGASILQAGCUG
Description: The codon-optimized sequence for PfTrxR [27, 28] was synthesized and subcloned into pET-15b (Genscript) and expressed and purified as for human glutathione reductase (hGR). Recombinant Schistosoma mansoni (S. mansoni) thioredoxin glutathione reductase (SmTGR), human TrxR (hTrxR), and hGR proteins were expressed and purified as described. TrxR and TGR enzyme inhibition assays were performed in triplicate at 25 °C in 0.1 M potassium phosphate (pH 7.4), 10 mM EDTA, 100 µM NADPH and 0.01% Tween-20. SmTGR (4 nM), hTrxR (4 nM), and PfTrxR (50 nM) were preincubated with the compounds for 15 min. The reaction was started with addition of an equal volume of 5,5′-dithiobis(2-nitrobenzoic acid) (6 mM) and NADPH (100 µM). The increase in A412 during the first 3 min was recorded. […]. The reactions were performed in triplicate. The IC50s were calculated in Prism version 5.01.

Structure (SMILES) | IC50 ([1]; 72 h incubation, HRP2 ELISA, mean ± S.E.M. of at least three experiments, AQ hydrochloride hydrate, PQ diphosphate, CQ diphosphate, read-out: P. falciparum, IC50 ± S.E.M., CQ-Susceptible 3D7) [µM] | IC50 ([1]; in vitro antiplasmodial activity, read-out: P. falciparum 3D7 (Cell Based Activity), IC50) [µM] | CC50 at 72 h [2] [µM] | IC50 [3] [µM] | β-Hematin Inhibitory Activity (BHIA) Determined by IR [4] | IC50 [5] [µM] | IC50 [6] [µM]
CCN(CC)Cc1cc(Nc2ccnc3cc(Cl)ccc23)ccc1O [Amodiaquine (AQ), amodiaquine] | 0.018 ± 0.0016 | 0.018 ± 0.002 | 23.8 | 0.061 ± 0.02 | Yes | 140 ± 30 | 26.5
[Cl][Au].c1ccc(P(c2ccccc2)c2ccccc2)cc1 [[AuClPPh3]] |  |  |  |  |  |  | 0.00065
